# Measurements taken from patent publication US4530907A, “Perfusion-cultivation of animal cells and equipment therefor” (priority 1981, dated 1985).
# Tested on: neuroblastoma cells
# Details: not given
# Source text: The test system in question is based on cultivation of neuroblastoma cells C1300, 41A3 and the effect on these cells measured as general biological cell changes or biochemical changes, as a function of the content of toxic substances in the substrate. The cell line used is suitable for such measurements since its biology and biochemistry is well documented.
# Examples of other parameters which can be used are ATP (adenosine triphosphate) content and LDH (lactate dehydrogenase) activity in the perfusion liquid. These function as indicators of membrane leakage and their concentration can be expected to increase after exposure. Another way of measuring membrane leakage is to study the outflow of an isotope-marked marker (see Example 5). It is also possible to measure the absorption of trypan blue in dead cells with the help of light absorption (see Example 4 and FIG. 4).
# Determining LD50 values by means of cell death, measured as absorption of trypan blue
# The accumulation of trypan blue (a stain which is taken up in dead cells) can be calculated with the help of light-absorption measurements.
row,SMILES,"cell death in neuroblastoma cells, correlation with the LD50 values obtained from animal experiments"
1,c1ccccc1 [benzene],correlates well

# Same assay, conditions: trypan blue absorption by light absorption; statement for all listed substances together
row,SMILES,"cell death in neuroblastoma cells, correlation with the LD50 values obtained from animal experiments"
1,[CH3][Hg][Cl] [CH3 HgCl],correlates well
2,[Cl][Cd][Cl] [CdCl2],correlates well
3,[Cl][Hg][Cl] [HgCl2],correlates well
4,[K+].[K+].[O]=[Cr](=[O])([O-])[O][Cr](=[O])(=[O])[O-] [K2 Cr2 O7],correlates well
5,CC(C)=O [acetone],correlates well
6,C1COCCO1 [dioxane],correlates well
7,CCCCO [n-butanol],correlates well
8,CCCO [n-propanol],correlates well
9,Clc1ccc(C(c2ccc(Cl)cc2)C(Cl)(Cl)Cl)cc1 [pp-DDT],correlates well
